Data from ChEMBL document CHEMBL4680259, “Discovery of bazedoxifene analogues targeting glycoprotein 130” (Eur J Med Chem, 2020).

How the values were obtained:
A549 = assay: Antiproliferative activity against human A549 cells assessed as cell growth inhibition measured after 24 hrs by MTT assay; type: functional, cell-based; conditions: A549, 24 h
[1] = target: T1, Interleukin-6 receptor subunit beta (Homo sapiens) (UniProt P40189); assay: Binding affinity to immobilized GP130 (unknown origin) assessed as response unit at 20 uM by SPR analysis
T1 sequence (whole entry): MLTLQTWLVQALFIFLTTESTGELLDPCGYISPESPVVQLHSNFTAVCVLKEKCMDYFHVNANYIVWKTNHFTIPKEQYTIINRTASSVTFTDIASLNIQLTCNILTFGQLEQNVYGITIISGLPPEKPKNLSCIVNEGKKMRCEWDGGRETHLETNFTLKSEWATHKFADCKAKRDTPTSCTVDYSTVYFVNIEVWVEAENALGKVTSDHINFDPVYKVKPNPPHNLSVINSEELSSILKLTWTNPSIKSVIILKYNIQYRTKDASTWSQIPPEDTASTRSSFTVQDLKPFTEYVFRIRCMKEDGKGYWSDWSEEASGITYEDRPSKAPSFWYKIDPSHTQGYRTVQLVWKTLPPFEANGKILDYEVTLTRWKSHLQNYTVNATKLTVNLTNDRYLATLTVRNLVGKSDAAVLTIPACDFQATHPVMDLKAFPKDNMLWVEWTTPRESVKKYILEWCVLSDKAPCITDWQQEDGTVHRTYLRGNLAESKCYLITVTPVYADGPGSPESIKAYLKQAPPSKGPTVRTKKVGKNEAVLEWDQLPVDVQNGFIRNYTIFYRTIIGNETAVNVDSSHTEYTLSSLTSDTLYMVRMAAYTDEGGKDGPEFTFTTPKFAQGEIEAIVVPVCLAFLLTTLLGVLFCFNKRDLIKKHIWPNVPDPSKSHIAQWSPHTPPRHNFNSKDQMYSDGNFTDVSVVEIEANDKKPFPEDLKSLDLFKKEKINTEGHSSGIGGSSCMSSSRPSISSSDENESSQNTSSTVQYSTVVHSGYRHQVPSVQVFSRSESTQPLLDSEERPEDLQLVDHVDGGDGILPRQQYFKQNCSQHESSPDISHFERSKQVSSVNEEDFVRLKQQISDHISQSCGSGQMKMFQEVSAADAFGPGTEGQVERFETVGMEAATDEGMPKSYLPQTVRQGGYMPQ

In the case of CCCCCCCOc1ccc(Cn2cc(C3CC(c4ccc(C(F)(F)F)cc4)=NN3C(N)=O)c3cc(Br)ccc32)cc1 (stereo not given), the IC50 (A549) is reported as over 50 µM and the Activity [1] is reported as 0.6 RU.
With COc1ccc(C2=NN(C(N)=O)C(c3cn(Cc4ccc(OCCN5CCCCC5)cc4)c4ccc(Br)cc34)C2)cc1 (stereo not given) the IC50 (A549) was 5.9 µM and the Activity [1] was 26.2 RU.
COc1cccc(C2=NN(C(N)=O)C(c3cn(Cc4ccc(OCCN5CCCCC5)cc4)c4ccc(Br)cc34)C2)c1 (stereo not given) showed an IC50 (A549) of 6.23 µM and an Activity [1] of 19.6 RU.
With NC(=O)N1N=C(c2ccc(F)cc2)CC1c1cn(Cc2ccc(OCCN3CCCCC3)cc2)c2ccccc12 (stereo not given) the IC50 (A549) was 7.44 µM and the Activity [1] was 21 RU.
For NC(=O)N1N=C(c2ccc(C(F)(F)F)cc2)CC1c1cn(Cc2ccc(OCCN3CCCCC3)cc2)c2ccc(Br)cc12 (stereo not given), the IC50 (A549) was 4.69 µM and the Activity [1] was 19.9 RU.
NC(=O)N1N=C(c2ccc(C(F)(F)F)cc2)C[C@H]1c1cn(Cc2ccc(OCCN3CCCCCC3)cc2)c2ccc(Br)cc12 gave an IC50 (A549) of 3.04 µM and an Activity [1] of 37.4 RU.
For NC(=O)N1N=C(c2ccc(C(F)(F)F)cc2)CC1c1cn(Cc2ccc(OCCC3CCNCC3)cc2)c2ccc(Br)cc12 (stereo not given), the IC50 (A549) was 4.62 µM and the Activity [1] was 35 RU.
With NC(=O)N1N=C(c2ccc(C(F)(F)F)cc2)C[C@@H]1c1cn(Cc2ccc(OCCN3CCCCCC3)cc2)c2ccc(Br)cc12 the IC50 (A549) was 6.16 µM and the Activity [1] was 24.2 RU.
COc1ccc(C2=NN(C(N)=O)C(c3cn(Cc4ccc(OCCN5CCCCC5)cc4)c4ccccc34)C2)cc1 (stereo not given) gave an IC50 (A549) of 12.7 µM and an Activity [1] of 33.3 RU.
NC(=O)N1N=C(c2ccc(F)cc2)CC1c1cn(Cc2ccc(OCCN3CCCCC3)cc2)c2ccc(Br)cc12 (stereo not given) was tested, and the IC50 (A549) was 6.8 µM and the Activity [1] was 19.9 RU.
Compound COc1ccccc1C1=NN(C(N)=O)C(c2cn(Cc3ccc(OCCN4CCCCC4)cc3)c3ccc(Br)cc23)C1 (stereo not given) has an IC50 (A549) of 6.98 µM and an Activity [1] of 36.4 RU.
NC(=O)N1N=C(c2ccc(Br)cc2)CC1c1cn(Cc2ccc(OCCN3CCCCC3)cc2)c2ccc(Br)cc12 (stereo not given) gave an IC50 (A549) of 6.73 µM and an Activity [1] of 47.3 RU.
With COc1cc(C2=NN(C(N)=O)C(c3cn(Cc4ccc(OCCN5CCCCC5)cc4)c4ccccc34)C2)cc(OC)c1OC (stereo not given) the IC50 (A549) was 11.8 µM and the Activity [1] was 21.7 RU.
Work on CN(C)CCOc1ccc(Cn2cc(C3CC(c4ccc(C(F)(F)F)cc4)=NN3C(N)=O)c3cc(Br)ccc32)cc1 (stereo not given) yielded an IC50 (A549) of 6.21 µM and an Activity [1] of 22.7 RU.
In the case of COc1ccc2c(c1)c(C1CC(c3ccc(C(F)(F)F)cc3)=NN1C(N)=O)cn2Cc1ccc(OCCN2CCCCC2)cc1 (stereo not given), the IC50 (A549) is reported as 6.18 µM and the Activity [1] is reported as 10.4 RU.
Compound NC(=O)N1N=C(c2ccc(C(F)(F)F)cc2)CC1c1cn(Cc2ccc(OCCN3CCOCC3)cc2)c2ccc(Br)cc12 (stereo not given) has an IC50 (A549) of 9.44 µM and an Activity [1] of 8.2 RU.
COc1ccc(C2=NN(C(N)=O)C(c3cn(Cc4ccc(OCCN5CCCCC5)cc4)c4ccc(OC)cc34)C2)cc1 (stereo not given) showed an IC50 (A549) of 14.4 µM and an Activity [1] of 28.8 RU.
With COc1ccc(C2=NN(C(N)=O)C(c3cn(Cc4ccc(OCCN5CCCCC5)cc4)c4ccc(Br)cc34)C2)cc1OC (stereo not given) the IC50 (A549) was 7.43 µM and the Activity [1] was 30.1 RU.
NC(=O)N1N=C(c2ccc(C(F)(F)F)cc2)CC1c1cn(Cc2ccc(OCCN3CCCCC3)cc2)c2ccccc12 (stereo not given) showed an IC50 (A549) of 5.6 µM and an Activity [1] of 8.2 RU.
In the case of COc1ccc2c(c1)c(C1CC(c3cc(OC)c(OC)c(OC)c3)=NN1C(N)=O)cn2Cc1ccc(OCCN2CCCCC2)cc1 (stereo not given), the IC50 (A549) is reported as 12.2 µM and the Activity [1] is reported as 16.2 RU.
Compound COc1ccc2c(c1)c(C1CC(c3ccc(F)cc3)=NN1C(N)=O)cn2Cc1ccc(OCCN2CCCCC2)cc1 (stereo not given) has an IC50 (A549) of 9.47 µM and an Activity [1] of 10.9 RU.
Work on COc1cc(C2=NN(C(N)=O)C(c3cn(Cc4ccc(OCCN5CCCCC5)cc4)c4ccc(Br)cc34)C2)cc(OC)c1OC (stereo not given) yielded an IC50 (A549) of 6.96 µM and an Activity [1] of 32.7 RU.
With NC(=O)N1N=C(c2ccc(Cl)cc2)CC1c1cn(Cc2ccc(OCCN3CCCCC3)cc2)c2ccc(Br)cc12 (stereo not given) the IC50 (A549) was 5.41 µM and the Activity [1] was 29.2 RU.
NC(=O)N1N=C(c2cccc(C(F)(F)F)c2)CC1c1cn(Cc2ccc(OCCN3CCCCC3)cc2)c2ccc(Br)cc12 (stereo not given) showed an IC50 (A549) of 5.42 µM and an Activity [1] of 10.2 RU.
For NC(=O)N1N=C(c2cccc(Cl)c2)CC1c1cn(Cc2ccc(OCCN3CCCCC3)cc2)c2ccc(Br)cc12 (stereo not given), the IC50 (A549) was 5.9 µM and the Activity [1] was 27.4 RU.
